Assay results as given in article PMC12459184, “Design, synthesis, and bioevaluation of pyrazole-containing tubulin polymerisation inhibitors based on conformational constraint strategy” (Journal of Enzyme Inhibition and Medicinal Chemistry, 2025).
Where two headings read alike, the source gives them in different places.

Legend:
[1] = tested on: SGC-7901 cells; experiment: MTT antiproliferative assay, SGC-7901; format: cell-based; conditions: Homo sapiens, read-out: IC50 (μM) ± SD SGC-7901
Procedure: The in vitro antiproliferative activities of all target compounds 4a−k, 5a−h, and 6a−h were assayed by MTT method using human gastric cancer cell line SGC-7901 and human breast cancer cell line MCF-7.
(§1) All cell lines tested in this study were purchased from the American Type Culture Collection (ATCC, Manassas, VA). SGC-7901 (human gastric adenocarcinoma), HCT-116 (human colon carcinoma), and A549 (human pulmonary carcinoma) cells were cultured in RPMI-1640 medium containing 10% foetal serum (FBS) and 1% penicillin-streptomycin solution (100×). MCF-7 (human breast carcinoma) cells were cultured in DMEM medium containing 10% foetal serum (FBS) and 1% penicillin-streptomycin solution (100×). PC-3 (human prostate carcinoma) cells were cultured in Ham’s F-12K medium containing 10% foetal serum (FBS) and 1% penicillin-streptomycin solution (100×). All cells were cultured at 37 °C in a humidified atmosphere containing 5% CO2.
(§2) Cells grown in logarithmic phase were harvested and seeded onto 96-well cell plates at a density of 4 ∼ 5 × 10^3 cells per well (various from cell type) and were cultured for 24 h. Different concentrations of compounds were added into the wells, and the cells were cultured for another 72 h. The medium was removed, then 20 μL of MTT (5 mg/mL in PBS) was added to each well and the cells were incubated for 4 h. 150 μL of DMSO was added to each well to dissolve the formazan, and the absorbance at 490 nm of each well was measured by a microplate reader. IC50 values were calculated by SPSS software.

[2] = tested on: HCT-116 cells; experiment: MTT antiproliferative assay, HCT-116; format: cell-based; conditions: Homo sapiens, 72 h drug exposure, read-out: IC50 (μM) ± SD HCT-116
Procedure: as §1, §2

[3] = tested on: PC-3 cells; experiment: MTT antiproliferative assay, PC-3; format: cell-based; conditions: Homo sapiens, 72 h drug exposure, read-out: IC50 (μM) ± SD PC-3
Procedure: as §1, §2

[4] = tested on: human umbilical vein endothelial cells (HUVEC); experiment: MTT toxicity assay, normal cells HUVEC; format: cell-based; conditions: for IC50: Homo sapiens, HUVEC, read-out: IC50 (μM) ± SD HUVEC; for SI-H: SI-H = IC50 (HUVEC)/IC50 (PC-3)
Procedure: (§3) The toxicity of compounds 4k and 5a was also tested by using human umbilical vein endothelial cells (HUVEC) and human liver cells (L02).
as §2

[5] = tested on: human liver cells (L02); experiment: MTT toxicity assay, normal cells L02; format: cell-based; conditions: for IC50: Homo sapiens, read-out: IC50 (μM) ± SD L02; for SI-L: SI-L = IC50 (L02)/IC50 (PC-3)
Procedure: as §3, §2

[6] = tested on: tubulin; experiment: In vitro tubulin polymerisation assay; format: biochemical
Procedure: To investigate the effect of compounds 4k and 5a on microtubule system, their tubulin polymerisation inhibition activities were evaluated using in vitro tubulin polymerisation assay.
The BK001 kit used in this test was purchased from Cytoskeleton Inc. (Denver, CO, USA). […] Then the mixtures were transferred to 37 °C and tubulin assembly was monitored (excitation wavelength: 360 nm; emission wavelength: 420 nm) at 1 min intervals for 90 min by a microplate reader.

[7] = tested on: cyclin-dependent kinase 1 (CDK1); experiment: Western blot assay, CDK1; format: cell-based, human; conditions: PC-3 cells, at the concentrations of 40 and 20 nM
Procedure: Additionally, western blot assay was employed to measure the expression level of cell cycle-related proteins cyclin-dependent kinase 1 (CDK1) and Cyclin B1.
(§4) PC-3 cells in logarithmic phase were harvested and seeded onto culture plates, and were cultured for 24 h. […] The proteins of PC-3 cells were extracted by RIPA buffer containing 1% PMSF (Beyotime Biotechnology, China). The protein concentration was measured by BCA Assay Kit (SEVEN Biotech, China). Equal amounts and concentration of protein were diluted in 5× loading buffer (Beyotime, China) and denatured by boiled for 5 min. Protein samples were separated on 12.5% SDS-PAGE gels (EpiZyme, China) and transferred to PVDF membranes (Millipore Corporation, Billerica, MA, USA). The membranes were blocked in QuickBlockTM Block Buffer (SEVEN Biotech, China) for 10 min at room temperature. Then the membranes were incubated with the primary antibodies overnight at 4 °C, including Cyclin B1 (1:2000, Proteintech, China), CDK1 (1:5000, Proteintech, China), BAX (1:5000, Proteintech, China), Bcl2 (1:1000, Proteintech, China), Caspase 9/p35/p10 (1:1000, Proteintech, China), and β-actin (1:20 000, Proteintech, China). […] The protein signals were detected by using chemiluminescent reagents kit (NCM Biotech, China) and visualised with ChemiDocImaging System (Tanon 5200, China). Protein expressions was quantified by using Fiji/ImageJ software.

[8] = tested on: Bax; experiment: Western blot assay, Bax; format: cell-based, human; conditions: PC-3 cells
Procedure: (§5) The expression of cell apoptosis-related proteins (Bax, Bcl-2, and cleaved caspase-9) after treatment of 4k and 5a was also measured by western blot assay.
as §4

[9] = tested on: Bcl-2; experiment: Western blot assay, Bcl-2; format: cell-based, human; conditions: PC-3 cells
Procedure: as §5, §4

[10] = tested on: PC-3 cells; experiment: Cell apoptosis analysis, Annexin V-FITC/PI flow cytometry; format: cell-based, human; conditions: 48 h
Procedure: To investigate the effect of 4k and 5a on cell apoptosis, flow cytometry was used to analyse the cell apoptosis of PC-3 cells. […] Early apoptosis cells could only be stained by Annexin V-FITC, while late apoptosis cells could be stained by both Annexin V-FITC and PI.
PC-3 cells in logarithmic phase were harvested and seeded onto 6-well cell plates at a density of 2.5 × 10^5 cells per well, and were cultured for 24 h. […] The cells were digested using trypsin and were harvested, washed twice with PBS, and resuspended in 500 μL binding buffer, followed by the addition of 100 μL of the cell suspension to 5 μL of Annexin V-FITC and 5 μL of PI. After stained for 15 min in a dark at room temperature, the samples were added 400 μL of binding buffer and detected by FACScan flow cytometry (BectoneDickinson, Franklin Lakes, NJ, USA).

[11] = tested on: PC-3 cells; experiment: Wound healing assay; format: cell-based, human; conditions: 24 h, control group 48.7%
Procedure: To investigate the effect of 4k and 5a on cell migration, wound healing assay was used on PC-3 cells.
PC-3 cells in logarithmic phase were harvested and seeded onto 12-well cell plates at a density of 2.5 × 10^5 cells per well, and were cultured for 24 h. Scratches were made in confluent monolayers using 200 μL pipette tip, and the cells were washing twice with PBS to remove all the non-adherent cells. […] Images of wounds were taken at 0 h and 24 h and analysed by Fiji/ImageJ software.

[12] = 72 h drug exposure, MTT assay, normal cells

## COc1cc(C2=NCC(=O)Nc3cn(-c4ccccc4)nc32)cc(OC)c1OC [5a, 2-Phenyl-8–(3,4,5-trimethoxyphenyl)-2,6-dihydropyrazolo[4,3-e][1,4]diazepin-5(4H)-one]
[1]; SGC-7901, 72 h
  IC50: 0.018 ± 0.003 µM
[2]
  IC50: 0.163 ± 0.038 µM
[3]
  IC50: 0.006 ± 0.002 µM
[4]; 72 h
  IC50: 0.86 ± 0.229 µM
[4]
  SI-H: 147.7
[5]; 72 h
  IC50: 0.204 ± 0.056 µM
[5]
  SI-L: 35.00
[6]; 10 μM and 20 μM
  effect on tubulin polymerisation (fluorescence intensity): inhibition of tubulin polymerisation
[6]; 20 μM
  tubulin polymerisation inhibitory potency compared with colchicine (3 μM): superior inhibitory potency compared to colchicine
[7]
  level of CDK1: increase
[8]; western blot, 10, 20, 40 nM
  expression of Bax: significantly increased
[9]; western blot, 5, 20, 40 nM
  expression of Bcl-2: significantly decreased
[10]; PC-3, 100 nM, vehicle 18.2%
  percentage of apoptosis cells: 26.6%
[10]; PC-3, 200 nM, vehicle 18.2%
  percentage of apoptosis cells: 41.5%
[11]; PC-3, 10 nM
  recover percentage of scratches: 32.3%
[11]; PC-3, 20 nM
  recover percentage of scratches: 23.3%

## COc1cc(C(=O)c2nn(-c3ccc(N)cc3)cc2N)cc(OC)c1OC [4k, (4-amino-1–(4-aminophenyl)-1H-pyrazol-3-yl)(3,4,5-trimethoxyphenyl)methanone]
[1]; SGC-7901, 72 h drug exposure, MTT assay
  IC50: 0.017 ± 0.002 µM
[2]
  IC50: 0.01 ± 0.001 µM
[3]
  IC50: 0.015 ± 0.004 µM
[4]; [12]
  IC50: 0.57 ± 0.167 µM
[4]
  SI-H: 39.11
[5]; [12]
  IC50: 0.025 ± 0.008 µM
[5]
  SI-L: 1.713
[6]; 5 μM and 10 μM
  effect on tubulin polymerisation (fluorescence intensity): inhibition of tubulin polymerisation
  tubulin polymerisation inhibitory potency compared with colchicine (3 μM): higher potency than colchicine
[7]
  level of CDK1: increase
[8]; western blot, 20, 40 nM
  expression of Bax: significantly increased
[9]; western blot, 10, 20, 40 nM
  expression of Bcl-2: significantly decreased
[10]; PC-3, 10 nM, vehicle 18.3%
  percentage of apoptosis cells: 27.1%
[10]; PC-3, 25 nM, vehicle 18.3%
  percentage of apoptosis cells: 34.1%
[11]; PC-3, 10 nM
  recover percentage of scratches: 42.7%
[11]; PC-3, 20 nM
  recover percentage of scratches: 20.2%
